# From patent US20230183239A1, “ECTONUCLEOTIDE PYROPHOSPHATASE-PHOSPHODIESTERASE 1 (ENPP-1) INHIBITORS AND USES THEREOF” (AbbVie Inc., priority 2017, published 2023)
# Columns and labels:
# Assay type in all cases: biochemical
# [1] = molecular target: T1, ENPP1 (Homo sapiens, UniProt P22413); experiment: Indirect quantitation of 2',3'-cGAMP hydrolysis (AMP-Glo Assay kit); conditions: cGAMP substrate; Ki from IC50 by Cheng-Prusoff; read-out: ENPP1 Inhibition -cGAMP: Ki
# T1 sequence (P22413 1-925): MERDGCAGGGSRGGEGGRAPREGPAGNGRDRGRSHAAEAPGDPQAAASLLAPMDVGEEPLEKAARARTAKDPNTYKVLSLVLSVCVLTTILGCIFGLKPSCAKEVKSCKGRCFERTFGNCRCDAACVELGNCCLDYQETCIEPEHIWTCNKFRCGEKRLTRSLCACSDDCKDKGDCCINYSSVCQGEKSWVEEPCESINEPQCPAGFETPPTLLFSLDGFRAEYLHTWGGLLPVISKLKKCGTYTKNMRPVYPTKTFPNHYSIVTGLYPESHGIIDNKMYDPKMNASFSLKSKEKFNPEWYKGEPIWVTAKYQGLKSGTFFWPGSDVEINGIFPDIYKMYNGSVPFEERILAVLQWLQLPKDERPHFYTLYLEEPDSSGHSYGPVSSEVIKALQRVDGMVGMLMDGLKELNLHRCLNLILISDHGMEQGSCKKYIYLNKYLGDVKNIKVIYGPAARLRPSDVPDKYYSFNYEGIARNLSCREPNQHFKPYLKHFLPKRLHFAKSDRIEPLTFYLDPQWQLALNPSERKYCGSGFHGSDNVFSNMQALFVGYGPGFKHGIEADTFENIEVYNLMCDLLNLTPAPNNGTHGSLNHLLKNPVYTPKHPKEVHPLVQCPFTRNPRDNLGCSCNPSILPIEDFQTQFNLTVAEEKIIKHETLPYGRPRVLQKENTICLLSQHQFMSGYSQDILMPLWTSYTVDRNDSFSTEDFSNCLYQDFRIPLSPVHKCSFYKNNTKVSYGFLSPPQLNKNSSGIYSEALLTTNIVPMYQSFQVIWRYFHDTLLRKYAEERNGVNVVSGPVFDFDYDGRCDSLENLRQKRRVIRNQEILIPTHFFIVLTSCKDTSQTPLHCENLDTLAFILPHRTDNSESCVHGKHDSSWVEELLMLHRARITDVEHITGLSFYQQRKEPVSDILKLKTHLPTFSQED
# [2] = molecular target: T1, ENPP1; experiment: ENPP1 enzyme assay with AMP-pNP substrate (hydrolysis of ATP analog); conditions: AMP-pNP substrate (ATP analog); Ki from IC50 by Cheng-Prusoff; read-out: ENPP1 Inhibition _AMP-pNP: Ki
# Description: The ENPP1 assay with AMP-pNP substrate is conducted in a buffer containing 50 mM Tris-HCl (pH 8.5)/ 250 mM NaCl/0.5 mM CaCl2/1 µM ZnCl2/0.1% DMSO. Inhibitors are added at final concentrations ranging between 10 µM and 30 pM depending on the compound. Duplicate wells are run at each inhibitor concentration. The final assay volume is 40 µL and human recombinant ENPP1 is present at 60 ng/well. The assay is initiated by the addition of substrate (300 µM AMP-pNP final concentration), and incubated for 20 minutes at 37° C. […] Each assay plate also includes wells with no enzyme added (MIN OD) and wells with no inhibitor added (MAX OD). The percent inhibition of ENPP1 for each sample is then calculated as: […]
# IC50 values of compounds were calculated by entering the percent inhibition values into a sigmoidal variable slope nonlinear regression model in GraphPad Prism® software.
# [3] = molecular target: T1, ENPP1; experiment: Substrate selectivity ratio, inhibition of cGAMP hydrolysis versus ATP hydrolysis; conditions: ratio Ki AMP-pNP / Ki cGAMP
# Description: The selectivity ratios for inhibition of cGAMP hydrolysis versus ATP hydrolysis were then calculated as follows: […]
compound,measurement,setting,value
"COc1cc2ncnc(NC(C)c3ccc(NS(N)(=O)=O)cc3)c2cc1OC (stereo in doubt) [Example 253, (R)-N-(4-(1-((6,7-dimethoxyquinazolin-4-yl)amino)ethyl)phenyl)sulfamide]",Ki,[1],< 100 nM
same,Ki,[2],100 to 1000 nM
same,Substrate Selectivity: Ki_AMP-pNP/Ki_cGAMP,[3],79.4
"NS(=O)(=O)NCCC1CCN(c2cc(-c3ccc4c(c3)OCO4)ncn2)CC1 [Example 10, N-(2-(1-(6-(benzo[d][1,3]dioxol-5-yl)pyrimidin-4-yl)piperidin-4-yl)ethyl)sulfamide]",Ki,[1],> 1000 nM
same,Ki,[2],> 1000 nM
"COc1cc2ncnc(N3CCC4(CC3)CN(S(N)(=O)=O)C4)c2cc1OC [Example 30, 7-(6,7-dimethoxyquinazolin-4-yl)-2,7-diazaspiro[3.5]nonane-2-sulfonamide]",Ki,[2],> 1000 nM
same,Substrate Selectivity: Ki_AMP-pNP/Ki_cGAMP,[3],39.4
"COc1cc2nccc(Nc3ccc(NS(=O)(=O)C(F)(F)F)cc3)c2cc1OC [Example 174, N-(4-((6,7-dimethoxyquinolin-4-yl)amino)phenyl)-1,1,1-trifluoromethanesulfonamide]",Ki,[1],100 to 1000 nM
same,Ki,[2],> 1000 nM
"COc1cc2ncnc(N(C)c3ccc(NS(N)(=O)=O)cc3)c2cc1OC [Example 190, N-(4-((6,7-dimethoxyquinazolin-4-yl)(methyl)amino)phenyl)sulfamide]",Ki,[1],> 1000 nM
same,Ki,[2],> 1000 nM
"COc1ccc2c(-c3ccc4c(c3)CN(S(N)(=O)=O)CC4)c(C#N)cnc2c1 [Example 249, 7-(3-cyano-7-methoxyquinolin-4-yl)-3,4-dihydroisoquinoline-2(1H)-sulfonamide]",Ki,[1],100 to 1000 nM
same,Ki,[2],> 1000 nM
"COc1cc2nccc(Oc3ccc(NS(N)(=O)=O)cc3)c2cc1F [Example 282, N-(4-((6-fluoro-7-methoxyquinolin-4-yl)oxy)phenyl)sulfamide]",Ki,[1],< 100 nM
same,Ki,[2],< 100 nM
"COc1cc2ncnc(Nc3ccc(CC(=O)O)cc3)c2cc1OC [Example 332, 2-(4-((6,7-dimethoxyquinazolin-4-yl)amino)phenyl)acetic acid]",Ki,[1],> 1000 nM
"COc1cc2ncnc(-c3ccc(S(N)(=O)=O)cc3)c2cc1OC [Example 333, 4-(6,7-dimethoxyquinazolin-4-yl)benzenesulfonamide]",Ki,[1],> 1000 nM
"COc1cc2ncnc(N3CCC(CCNC(C)=O)CC3)c2cc1OC [Example 335, N-(2-(1-(6,7-dimethoxyquinazolin-4-yl)piperidin-4-yl)ethyl)acetamide]",Ki,[1],100 to 1000 nM
"COc1cc2ncnc(NCc3ccc4c(c3)OCO4)c2cc1OC [Example 336, N-(benzo[d][1,3]dioxol-5-ylmethyl)-6,7-dimethoxyquinazolin-4-amine]",Ki,[1],> 1000 nM
"CCOc1ccc(S(=O)(=O)N2CCN(C)CC2)cc1-c1ncnc2cc(OC)c(OC)cc12 [Example 337, 4-(2-ethoxy-5-((4-methylpiperazin-1-yl)sulfonyl)phenyl)-6,7-dimethoxyquinazoline]",Ki,[1],> 1000 nM
"COc1cc2ncnc(N3CCC(CCNS(C)(=O)=O)CC3)c2cc1OC [Example 338, N-(2-(1-(6,7-dimethoxyquinazolin-4-yl)piperidin-4-yl)ethyl)methanesulfonamide]",Ki,[1],100 to 1000 nM
"COc1ccc(S(=O)(=O)N2CCN(CCO)CC2)cc1OC [Example 340, 2-(4-((3,4-dimethoxyphenyl)sulfonyl)piperazin-1-yl)ethan-1-ol]",Ki,[1],> 1000 nM
"COc1cc2nccc(Oc3ccc(N)cc3)c2cc1OC [Example 341, 4-((6,7-dimethoxyquinolin-4-yl)oxy)aniline]",Ki,[1],> 1000 nM
"COc1cc2nccc(Oc3ccc(N)c(F)c3)c2cc1OC [Example 344, 4-((6,7-dimethoxyquinolin-4-yl)oxy)-2-fluoroaniline]",Ki,[1],> 1000 nM
"COc1ccc2nccc(Oc3ccc(NS(N)(=O)=O)cc3)c2n1 [Example 346, N-(4-((6-methoxy-1,5-naphthyridin-4-yl)oxy)phenyl)sulfamide]",Ki,[1],100 to 1000 nM
"COc1ccc2c(Oc3ccc(C(=O)O)c(OC)c3)ccnc2c1 [Example 347, 2-methoxy-4-((7-methoxyquinolin-4-yl)oxy)benzoic acid]",Ki,[1],100 to 1000 nM
"COc1ccc2c(-c3ccc(CNS(N)(=O)=O)cc3)coc2c1 [Example 348, N-(4-(6-methoxybenzofuran-3-yl)benzyl) sulfamide]",Ki,[1],100 to 1000 nM
"COc1cnc2c(Oc3ccc(NS(N)(=O)=O)cc3)ccnc2c1 [Example 349, N-(4-((7-methoxy-1,5-naphthyridin-4-yl)oxy)phenyl) sulfamide]",Ki,[1],> 1000 nM
"COc1ccc2nccc(-c3ccc4c(c3)CN(S(N)(=O)=O)CC4)c2c1 [Example 358, 7-(6-methoxyquinolin-4-yl)-3,4-dihydroisoquinoline-2(1H)-sulfonamide]",Ki,[1],< 100 nM
"COc1ccc2c(-c3ccc4c(c3)CCN(S(N)(=O)=O)C4)ccnc2c1 [Example 366, 6-(7-methoxyquinolin-4-yl)-3,4-dihydroisoquinoline-2(1H)-sulfonamide]",Ki,[1],> 1000 nM
"COc1cnc2c(-c3ccc(CNS(N)(=O)=O)cc3)ccnc2c1 [Example 369, N-(4-(7-methoxy-1,5-naphthyridin-4-yl)benzyl)sulfamide]",Ki,[1],> 1000 nM
"COc1ccc2c(-c3ccc(CNS(N)(=O)=O)cc3OC)ccnc2c1 [Example 383, N-(3-methoxy-4-(7-methoxyquinolin-4-yl)benzyl)sulfamide]",Ki,[1],> 1000 nM
"COc1ccc2c(N3CCc4ccc(NS(N)(=O)=O)cc43)ccnc2c1 [Example 391, N-(1-(7-methoxyquinolin-4-yl)indolin-6-yl)sulfamide]",Ki,[1],> 1000 nM
"COc1ccc2c(c1)OCCC2Oc1ccc(NS(N)(=O)=O)cc1 (stereo not shown) [Example 399, (4-((7-methoxychroman-4-yl)oxy)phenyl)sulfamide]",Ki,[1],> 1000 nM
"COc1ccc2c(=O)n(Cc3ccc(S(N)(=O)=O)cc3)cnc2c1 [Example 400, 4-((7-methoxy-4-oxoquinazolin-3(4H)-yl)methyl)benzenesulfonamide]",Ki,[1],> 1000 nM
"COc1ccc2c(c1)OCC(=O)N2Cc1ccc(NS(N)(=O)=O)cc1 [Example 401, N-(4-((7-methoxy-3-oxo-2,3-dihydro-4H-benzo[b][1,4]oxazin-4-yl)methyl)phenyl)sulfamide]",Ki,[1],> 1000 nM
"COc1ccc2c(c1)OCCN2c1ccc(CNS(N)(=O)=O)cc1 [Example 405, N-(4-(7-methoxy-2,3-dihydro-4H-benzo[b][1,4]oxazin-4-yl)benzyl)sulfamide]",Ki,[1],> 1000 nM
"COc1ccc2c(-c3ccc4c(c3)CN(S(N)(=O)=O)CC4)c(C(F)(F)F)cnc2c1 [Example 408, 7-(7-methoxy-3-(trifluoromethyl)quinolin-4-yl)-3,4-dihydroisoquinoline-2(1H)-sulfonamide]",Ki,[1],100 to 1000 nM
"COc1ccc2c(-c3cc4c(cc3F)CCN(S(N)(=O)=O)C4)ccnc2c1 [Example 409, 6-fluoro-7-(7-methoxyquinolin-4-yl)-3,4-dihydroisoquinoline-2(1H)-sulfamide]",Ki,[1],> 1000 nM
"COc1cc2c(Oc3ccc(NS(N)(=O)=O)cc3)ccnc2cn1 [Example 411, N-(4-((6-methoxy-1,7-naphthyridin-4-yl)oxy)phenyl)sulfamide]",Ki,[1],> 1000 nM
"COc1ccc2c(-n3cc(CNS(N)(=O)=O)cn3)ccnc2c1 [Example 414, N-((1-(7-methoxyquinolin-4-yl)-1H-pyrazol-4-yl)methyl)sulfamide]",Ki,[1],100 to 1000 nM
"COc1cc2nccc(-c3ccc(CNS(N)(=O)=O)cc3)c2cn1 [Example 415, N-(4-(7-methoxy-1,6-naphthyridin-4-yl)benzyl)sulfamide]",Ki,[1],100 to 1000 nM
"COc1ccc2c(Oc3ccc(NS(N)(=O)=O)c(OC)c3)ccnc2n1 [Example 421, N-(2-methoxy-4-((7-methoxy-1,8-naphthyridin-4-yl)oxy)phenyl)sulfamide]",Ki,[1],< 100 nM
